# From patent US12115151B2, “Method of treatment of p53 WT tumors” (Dana-Farber Cancer Institute, Inc., priority 2018, dated 2024)
# “And” between values parts separate entries of the source, which are not always exact repeats. Identical values can stand only once. “Also recorded” adds a separate entry of the source.
# Tests used:
# [1] = tested on: MS-1 cells; experiment: XTT viability assay, MS-1 cells; type: cell-based; settings: MS-1 (p53 mutant); 96 hours
# Method: (§1) Cell viability assays were performed using Cell Proliferation Kit II (XTT) (Roche) according to the manufacturer's instructions and BH3 profiling was described in Pallis et al. (36). Synergy testing was performed using Compusyn and Synergyfinder (28, 29).
# [2] = tested on: MKL-1 MCC cells; experiment: XTT cell viability assay and synergy testing, MKL-1 cells; type: cell-based; settings: 96 hours; for sensitivity of MKL-1 cells to MDM2 inhibitor (XTT viability): MKL-1 (p53 wild type); for Response-rep1 / Response-rep2: Lenalidomide 0 nM; for Response: relative viability vs untreated; for relative viability (XTT), untreated = 1: combinations with a fixed amount of Lenalidomide (5 uM), replicate columns
# Method: as §1
# The XTT assay was performed to determine the relative viability (% response) normalized to untreated cells.
# [3] = tested on: MKL-1 MCC xenografts; experiment: Xenograft efficacy study; settings: individual animals, oral daily, HDM201 40 mg/kg and/or lenalidomide 50 mg/kg; for Tumor Volume Change, Abs Ch = T − T0: tumor volumes in mm3
# Excerpt: The study was terminated when the tumor volume reached the maximum permissible size of 2000 mm3.
# [4] = target: CK1α (Homo sapiens, UniProt P48729); experiment: Western blot of CK1α protein levels in MKL-1 cells; type: cell-based; settings: IMiD 10 μM
# Method: (§2) Confluent cultures of cells were washed with ice-cold phosphate-buffered saline (PBS) and resuspended in EBC lysis buffer (50 mM Tris, pH 8.0, 150 mM NaCl, 0.5% NP-40, 1:10,000-mercaptoethanol, 0.5 mM EDTA) for 10 min on ice and then centrifuged. Clarified lysates were incubated overnight with antibodies and magnetic protein A/G beads (PureProteome magnetic beads, EMD Millipore). […] Quantitative western blotting was performed using the Odyssey near-infrared system (Li-Cor Biotechnology).
# [5] = tested on: p53; experiment: Western blot of p53 response in IMR90-p53DD cells; type: cell-based, human; settings: IMR90 cells expressing p53DD, Nutlin-3 1 μM, 24 hours
# Method: as §2
# CK1α, sequence (P48729 whole entry): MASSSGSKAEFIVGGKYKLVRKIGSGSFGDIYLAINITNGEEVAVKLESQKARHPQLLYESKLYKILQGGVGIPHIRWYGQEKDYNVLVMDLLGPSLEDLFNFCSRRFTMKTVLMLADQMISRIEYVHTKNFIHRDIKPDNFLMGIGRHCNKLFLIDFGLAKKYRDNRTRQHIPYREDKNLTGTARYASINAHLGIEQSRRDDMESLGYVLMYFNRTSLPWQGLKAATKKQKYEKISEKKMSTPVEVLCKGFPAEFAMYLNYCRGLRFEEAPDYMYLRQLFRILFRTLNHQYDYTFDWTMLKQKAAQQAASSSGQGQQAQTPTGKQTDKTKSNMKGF
smiles,measurement,setting,value
CC(C)[C@@H](CS(=O)(=O)C(C)C)N1C(=O)[C@@](C)(CC(=O)O)C[C@H](c2cccc(Cl)c2)[C@H]1c1ccc(Cl)cc1 [AMG232],sensitivity of MS-1 cells to MDM2 inhibitor (XTT viability),[1],not MS-1 cells were sensitive
same,sensitivity of MKL-1 cells to MDM2 inhibitor (XTT viability),[2],sensitive
"COc1ncc(-c2nc3c(n2C(C)C)[C@H](c2ccc(Cl)cc2)N(c2cc(Cl)cn(C)c2=O)C3=O)c(OC)n1 [HDM201, (S)-5-(5-Chloro-1-methyl-2-oxo-1,2-dihydro-pyridin-3-yl)-6-(4-chloro-phenyl)-2-(2,4-dimethoxy-pyrimidin-5-yl)-1-isopropyl-5,6-dihydro-1H-pyrrolo[3,4-d]imidazol-4-one]","Tumor Volume Change, % Ch = (T − T0)/T0",[3]; day 0,0.00%
same,"Tumor Volume Change, Abs Ch = T − T0",[3]; day 0,0.00
same,"Tumor Volume Change, % Ch = (T − T0)/T0",[3]; day 4,168.68% and 25.53% and 16.64% and 93.53% and 6.55% and 29.08% and 14.67% and 11.44%
same,"Tumor Volume Change, Abs Ch = T − T0",[3]; day 4,302.89 and 66.12 and 32.34 and 133.99 and 10.51 and 44.16 and 21.14 and 14.26
same,"Tumor Volume Change, % Ch = (T − T0)/T0",[3]; day 7,392.40% and 107.65% and 56.29% and 123.49% and 37.00% and 27.47% and 30.43% and 28.15%
same,"Tumor Volume Change, Abs Ch = T − T0",[3]; day 7,704.61 and 278.82 and 109.40 and 176.91 and 59.41 and 41.71 and 43.86 and 35.09
same,"Tumor Volume Change, % Ch = (T − T0)/T0",[3]; day 11,465.37% and 122.53% and 125.88% and 248.58% and 101.24% and 14.09% and 37.76% and 61.17%
same,"Tumor Volume Change, Abs Ch = T − T0",[3]; day 11,835.64 and 317.36 and 244.65 and 356.12 and 162.53 and 21.39 and 54.43 and 76.25
same,"Tumor Volume Change, % Ch = (T − T0)/T0",[3]; day 14,597.67% and 128.4% and 191.55% and 295.64% and 94.41% and 41.69% and 77.45% and 56.59%
same,"Tumor Volume Change, Abs Ch = T − T0",[3]; day 14,1073.19 and 332.66 and 372.29 and 423.53 and 151.58 and 63.30 and 111.64 and 70.55
same,"Tumor Volume Change, % Ch = (T − T0)/T0",[3]; day 18,741.47% and 4165.70% and 234.58% and 350.27% and 114.06% and 20.72% and 81.45% and 83.83%
same,"Tumor Volume Change, Abs Ch = T − T0",[3]; day 18,1331.39 and 429.17 and 455.90 and 501.79 and 183.12 and 31.46 and 117.41 and 104.49
same,Response-rep1,[2]; HDM201 50 nM,90.76%
same,Response-rep2,[2]; HDM201 50 nM,92.94%
same,Response-rep1,[2]; HDM201 100 nM,75.8%
same,Response-rep2,[2]; HDM201 100 nM,77.72%
same,Response-rep1,[2]; HDM201 150 nM,53.3961%
same,Response-rep2,[2]; HDM201 150 nM,61.84%
same,Response-rep1,[2]; HDM201 180 nM,33.32%
same,Response-rep2,[2]; HDM201 180 nM,40.87%
same,Response,[2]; HDM201 50 nM alone,93.9107%
same,Response,[2]; HDM201 100 nM alone,90.5417%
same,Response,[2]; HDM201 150 nM alone,94.8184%
same,Response,[2]; HDM201 180 nM alone,87.8557%
"CNc1ncc(-n2nc(N)c3cc(F)c(-c4ccc(O)c5ccccc45)cc32)c(Cl)c1C [SC-24-UR99, 4-(3-amino-1-(4-chloro-5-methyl-6-(methylamino)pyridin-3-yl)-5-fluoro-1H-indazol-6-yl)naphthalen-1-ol]",Response,[2]; SC-24-UR99 50 nM alone,103.6933% and 100.5561%
same,Response,[2]; SC-24-UR99 100 nM alone,99.5168% and 105.263%
same,Response,[2]; SC-24-UR99 150 nM alone,99.3633% and 93.4308%
same,Response,[2]; SC-24-UR99 180 nM alone,92.5016% and 89.8385%
O=C1CCC(N2C(=O)c3ccccc3C2=O)C(=O)N1 (stereo not shown) [thalidomide],CK1α protein levels,[4],did not reduce CK1α protein levels; also recorded: not thalidomide
Nc1cccc2c1C(=O)N(C1CCC(=O)NC1=O)C2=O (stereo not shown) [pomalidomide],CK1α protein levels,[4],did not reduce CK1α protein levels; also recorded: to a lesser degree
COc1ccc(C2=N[C@@H](c3ccc(Cl)cc3)[C@@H](c3ccc(Cl)cc3)N2C(=O)N2CCNC(=O)C2)c(OC(C)C)c1 [Nutlin-3],p53 response,[5],does not elicit p53 response
same,p53 response,[5]; listed as nutlin-3,"did not increase p53, p-p53 and PUMA levels"
same,sensitivity of MS-1 cells to MDM2 inhibitor (XTT viability),[1],not MS-1 cells were sensitive
same,sensitivity of MKL-1 cells to MDM2 inhibitor (XTT viability),[2],sensitive
same,Response,[2]; Nutlin-3 1250 nM alone,96.8309% and 82.16%
same,Response,[2]; Nutlin-3 2500 nM alone,65.56% and 72.5696%
same,Response,[2]; Nutlin-3 3750 nM alone,44.2% and 63.6648%
same,Response,[2]; Nutlin-3 4500 nM alone,41.19% and 56.8421%
COc1cc(C(=O)O)ccc1NC(=O)[C@@H]1N[C@@H](CC(C)(C)C)[C@](C#N)(c2ccc(Cl)cc2F)[C@H]1c1cccc(Cl)c1F [RG7388],sensitivity of MS-1 cells to MDM2 inhibitor (XTT viability),[1],not MS-1 cells were sensitive
same,sensitivity of MKL-1 cells to MDM2 inhibitor (XTT viability),[2],sensitive
same,"relative viability (XTT), untreated = 1",[2]; Nutlin-3 or RG7388 level 25 (unit not given),0.7819 and 0.7111 and 0.8222
same,"relative viability (XTT), untreated = 1",[2]; Nutlin-3 or RG7388 level 50 (unit not given),0.6836 and 0.5814 and 0.6885
same,"relative viability (XTT), untreated = 1",[2]; Nutlin-3 or RG7388 level 75 (unit not given),0.553 and 0.4338 and 0.5431
same,"relative viability (XTT), untreated = 1",[2]; Nutlin-3 or RG7388 level 90 (unit not given),0.4663 and 0.3695 and 0.5108
